# Reference: patent US7276502B2, “Thiazoles useful as inhibitors of protein kinases” (Vertex Pharmaceuticals Incorporated, priority 2003, dated 2007)
# How the values were obtained:
# SYK = SYK (Homo sapiens, UniProt P43405); experiment: SYK inhibition assay (standard coupled enzyme assay); format: biochemical; settings: coupled enzyme assay, 200 μM ATP, 4 μM poly Gly-Tyr peptide, 30° C.; read-out: Ki (SYK)
# Protocol: Reactions were carried out in 100 mM HEPES (pH 7.5), 10 mM MgCl2, 25 mM NaCl, 1 mM DTT and 1.5% DMSO. Final substrate concentrations in the assay were 200 μM ATP (Sigma chemical Co.) and 4 μM poly Gly-Tyr peptide (Sigma Chemical Co.). Assays were carried out at 30° C. and 200 nM SYK. Final concentrations of the components of the coupled enzyme system were 2.5 mM phosphoenolpyruvate, 300 μM NADH, 30 μg/ml pyruvate kinase and 10 μg/ml lactate dehydrogenase.
# An assay stock buffer solution was prepared containing all of the reagents listed above, with the exception of SYK, DTT, and the test compound of interest of the present invention. 56 μl of the test reaction was placed in a 96 well plate followed by the addition of 1 μl of 2 mM DMSO stock containing the test compound of the present invnetion (final compound concentration 30 μM).
# ZAP-70 = biological target: T1, ZAP-70 (Homo sapiens, UniProt P43403); experiment: ZAP-70 inhibition assay (standard coupled enzyme assay); format: biochemical; settings: 100 μM ATP, 20 μM poly-4EY peptide, 30° C., 60 nM ZAP-70
# T1 sequence (P43403 1-619): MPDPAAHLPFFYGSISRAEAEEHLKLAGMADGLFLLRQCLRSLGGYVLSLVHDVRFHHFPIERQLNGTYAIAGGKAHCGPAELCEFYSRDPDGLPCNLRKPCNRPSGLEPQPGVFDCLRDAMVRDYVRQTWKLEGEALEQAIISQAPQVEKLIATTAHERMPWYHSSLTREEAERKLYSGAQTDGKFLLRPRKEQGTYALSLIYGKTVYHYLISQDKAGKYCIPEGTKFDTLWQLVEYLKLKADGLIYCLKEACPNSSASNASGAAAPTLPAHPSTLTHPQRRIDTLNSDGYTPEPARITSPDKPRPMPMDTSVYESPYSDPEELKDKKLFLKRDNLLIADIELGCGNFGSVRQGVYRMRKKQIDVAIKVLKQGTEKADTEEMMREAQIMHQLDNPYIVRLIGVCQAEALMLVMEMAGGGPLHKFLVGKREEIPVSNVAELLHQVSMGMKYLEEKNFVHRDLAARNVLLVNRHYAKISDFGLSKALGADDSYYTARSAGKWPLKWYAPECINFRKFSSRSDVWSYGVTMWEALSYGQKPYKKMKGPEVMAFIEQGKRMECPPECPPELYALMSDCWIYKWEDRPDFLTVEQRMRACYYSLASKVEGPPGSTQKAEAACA
# Protocol: Compounds were screened for their ability to inhibit ZAP-70 using a standard coupled enzyme assay (Fox et al., Protein Sci. 1998, 7, 2249). Assays were carried out in a mixture of 100 mM HEPES (pH 7.5), 10 mM MgCl2, 25 mM NaCl, 2 mM DTT and 3% DMSO. Final substrate concentrations in the assay were 100 μM ATP (Sigma Chemicals) and 20 μM peptide (poly-4EY, Sigma Chemicals). Assays were carried out at 30° C. and 60 nM ZAP-70. Final concentrations of the components of the coupled enzyme system were 2.5 mM phosphoenolpyruvate, 300 μM NADH, 30 μg/ml pyruvate kinase and 10 μg/ml lactate dehydrogenase.
# An assay stock buffer solution was prepared containing all of the reagents listed above, with the exception of ZAP-70 and the test compound of interest of the present invention. 55 μl of the stock solution was placed in a 96 well plate followed by addition of 2 μl of DMSO stock containing serial dilutions of the test compound of the present invention (typically starting from a final concentration of 15 μM). The plate was preincubated for 10 minutes at 30° C. and the reaction initiated by addition of 10 μl of enzyme (final concentration 60 nM). Initial reaction rates were determined with a Molecular Devices SpectraMax Plus plate reader over a 15 minute time course. Ki data was calculated from non-linear regression analysis using the Prism software package (GraphPad Prism version 3.0a for Macintosh, GraphPad Software, San Diego Calif., USA).
Ki (SYK) [µM],Ki (ZAP-70) [µM],Structure (SMILES)
≤ 5,≤ 5,Cc1cc(C)cc(Nc2nccc(-c3nc(Br)cs3)n2)c1 [Example I-42]
≤ 5,≤ 5,COCc1cc(N)cc(Nc2nccc(-c3ncc(C)s3)n2)c1 [Example I-156]
≤ 5,≤ 5,CCN(CC)Cc1cc(Nc2nccc(-c3ncc(C)s3)n2)ccc1O [Example I-10]
